Values after ≈ are worked out from the molar mass of the structure shown. Values joined by “and” are separate entries in the source; they are usually repeats but may differ in a detail not shown here. Equal entries are not always repeated.
Columns and labels:
Experiment in all cases: ≥ marks a high value that may be exact or a test limit, other limits are often not marked, values filed in µg/mL are converted to µM
[1] = test system: Salmonella enterica subsp. enterica serovar Typhimurium ATCC 14028s
[2] = test system: Pseudomonas aeruginosa Z61
[3] = test system: Salmonella enterica serovar typhimurium MS7953s
[4] = test system: Vibrio anguillarum
[5] = test system: Pseudomonas aeruginosa K799
[6] = test system: Aeromonas salmonicida
[7] = test system: Staphylococcus epidermidis C621
[8] = test system: Staphylococcus aureus 113
[9] = test system: Acinetobacter baumannii ATCC 19606
[10] = test system: Staphylococcus aureus ATCC 25923
[11] = test system: Klebsiella pneumoniae ATCC 700603
[12] = test system: Staphylococcus aureus 75
[13] = test system: Acinetobacter baumannii 97830
[14] = test system: Escherichia coli ATCC 25922
[15] = test system: Pseudomonas aeruginosa 73
[16] = test system: Acinetobacter baumannii 9931
[17] = test system: Pseudomonas aeruginosa ATCC 27853
[18] = test system: Pseudomonas aeruginosa ATCC 9027
[19] = test system: Staphylococcus epidermidis ATCC 12228
[20] = test system: Bacillus subtilis ATCC 23857
[21] = test system: Staphylococcus aureus ATCC 29213
[22] = test system: Escherichia coli 804
[23] = test system: Escherichia coli 780
[24] = test system: Pseudomonas aeruginosa 50
[25] = test system: Candida albicans ATCC 64549
[26] = test system: Escherichia coli DH5alpha
[27] = test system: Zymomonas mobilis ATCC 10988
[28] = test system: Bacillus subtilis DELTA
[29] = test system: Candida parapsilosis
[30] = test system: Pseudomonas aeruginosa PAO1
[31] = test system: Candida albicans DBFIQ 1
[32] = test system: Escherichia coli ATCC 35218
[33] = test system: Enterococcus faecalis ATCC 29212
[34] = test system: Staphylococcus aureus BSF FBCB1313
[35] = test system: Candida tropicalis DBFIQ 3
[36] = test system: Candida albicans PEEC 2
[37] = test system: Acinetobacter baumannii ATCC 7978
[38] = test system: Enterococcus faecium E007
[39] = test system: Staphylococcus aureus ATCC 29231
[40] = test system: Candida albicans ATCC 10231
[41] = test system: Cryptococcus neoformans ATCC 32264
[42] = test system: Staphylococcus aureus ATCC 43300
[43] = test system: Escherichia coli
[44] = test system: Salmonella sp.
[45] = test system: Yersinia enterocolitica
[46] = test system: Salmonella enterica subsp. enterica serovar Enteritidis

Question: What does the source list for `CSCC[C@H](NC(=O)[C@@H](NC(=O)[C@H](CCCCN)NC(=O)[C@H](Cc1c[nH]c2ccccc12)NC(=O)[C@H](CC(C)C)NC(=O)[C@H](C)N)[C@@H](C)O)C(=O)N[C@@H](CC(C)C)C(=O)N[C@@H](CCCCN)C(=O)N[C@@H](CCCCN)C(=O)N[C@@H](C)C(=O)N[C@@H](C)C(=O)N[C@@H](Cc1cnc[nH]1)C(=O)N[C@H](C(=O)NCC(=O)N[C@@H](CCCCN)C(=O)N[C@@H](Cc1cnc[nH]1)C(=O)N[C@H](C(=O)NCC(=O)N[C@@H](CCCCN)C(=O)N[C@@H](C)C(=O)N[C@@H](C)C(=O)N[C@@H](CC(C)C)C(=O)N[C@H](C(=O)N[C@@H](Cc1cnc[nH]1)C(=O)N[C@@H](Cc1ccc(O)cc1)C(=O)N[C@@H](CC(C)C)C(=O)N[C@@H](CC(N)=O)C(=O)O)[C@@H](C)O)C(C)C)C(C)C` [ALWKTMLKKAAHVGKHVGKAALTHYLN]?
Answer: MIC [1]: 1.34 µM (≈ 4 µg/mL); MIC [2]: 2.68 µM (≈ 8 µg/mL); MIC [3]: 0.167 µM (≈ 0.5 µg/mL); MIC [4]: 1.34 µM (≈ 4 µg/mL); MIC [5]: 1.34 µM (≈ 4 µg/mL); MIC [6]: 0.335 µM (≈ 1 µg/mL); MIC [7]: 1.34 µM (≈ 4 µg/mL)

Question: How did the MIC [8] turn out when `C[C@H](N)C(=O)N[C@@H](CCCN=C(N)N)C(=O)N[C@@H](Cc1c[nH]c2ccccc12)C(=O)N[C@@H](Cc1c[nH]c2ccccc12)C(=O)N[C@@H](Cc1c[nH]c2ccccc12)C(=O)N[C@@H](CCCN=C(N)N)C(=O)N[C@@H](C)C(N)=O` [ARWWWRA] was run?
Answer: The MIC was ≥ 64 µM.

Question: And the MIC [9]?
Answer: The MIC was > 128 µM.

Question: And the MIC [10]?
Answer: Its MIC is 64 µM and 128 µM.

Question: What about the MIC [11] of the same compound?
Answer: Its MIC is > 128 µM.

Question: And the MIC [12]?
Answer: The MIC was ≥ 64 µM.

Question: And the MIC [13]?
Answer: The MIC was ≥ 128 µM.

Question: What about the MIC [14] of the same compound?
Answer: The MIC was > 128 µM.

Question: What about the MIC [15] of the same compound?
Answer: Its MIC is ≥ 128 µM.

Question: And the MIC [16]?
Answer: The MIC was ≥ 128 µM.

Question: And the MIC [17]?
Answer: The MIC was > 128 µM.

Question: What about the MIC [18] of the same compound?
Answer: Its MIC is > 128 µM.

Question: And the MIC [19]?
Answer: The MIC was 32 µM (≈ 33 µg/mL).

Question: What about the MIC [20] of the same compound?
Answer: The MIC was 16 µM (≈ 16.5 µg/mL).

Question: What about the MIC [21] of the same compound?
Answer: Its MIC is 128 µM (≈ 132 µg/mL).

Question: And the MIC [22]?
Answer: The MIC was ≥ 128 µM.

Question: And the MIC [23]?
Answer: Its MIC is ≥ 128 µM.

Question: And the MIC [24]?
Answer: Its MIC is ≥ 128 µM.

Question: With `CSCC[C@H](NC(=O)[C@H](CC(N)=O)NC(=O)[C@H](CCCN=C(N)N)NC(=O)[C@H](CCC(N)=O)NC(=O)[C@H](Cc1c[nH]c2ccccc12)NC(=O)[C@H](CCC(N)=O)NC(=O)[C@H](Cc1ccccc1)NC(=O)[C@@H](N)CS)C(=O)N[C@@H](CCCN=C(N)N)C(=O)N[C@@H](CCCCN)C(=O)N[C@H](C(=O)N[C@@H](CCCN=C(N)N)C(=O)O)C(C)C` [CFQWQRNMRKVR] as the compound, how does the MIC [25] read?
Answer: The MIC was 7.57 µM (≈ 12.5 µg/mL).

Question: What does the source list for `CC[C@H](C)[C@H](NC(=O)[C@H](CCCN=C(N)N)NC(=O)[C@H](CCC(N)=O)NC(=O)[C@H](CC(C)C)NC(=O)[C@@H](NC(=O)[C@H](CCCN=C(N)N)NC(=O)[C@H](CCCCN)NC(=O)[C@H](Cc1ccccc1)NC(C)=O)[C@@H](C)CC)C(=O)N[C@@H](CCCCN)C(=O)N[C@@H](CC(=O)O)C(=O)N[C@@H](Cc1ccccc1)C(=O)N[C@@H](CC(C)C)C(=O)N[C@@H](CCCN=C(N)N)C(N)=O` [FKRILQRIKDFLR]?
Answer: MIC [26]: ≥ 57.7 µM; MIC [27]: 28.8 µM (≈ 51.2 µg/mL); MIC [28]: ≥ 57.7 µM; MIC [29]: 23.1 µM (≈ 40.9 µg/mL); MIC [30]: 11.5 µM (≈ 20.5 µg/mL)

Question: `CC(C)C[C@H](NC(=O)[C@H](CCCCN)NC(=O)[C@H](CCCCN)NC(=O)[C@H](Cc1ccccc1)NC(=O)[C@H](CC(C)C)NC(=O)[C@@H](N)CCCCN)C(=O)N[C@@H](Cc1ccccc1)C(=O)N[C@@H](CCCCN)C(N)=O` [KLFKKLFK] was tested. Which MIC [31] did it give?
Answer: The MIC was ≥ 122 µM.

Question: What about the MIC [32] of the same compound?
Answer: Its MIC is 7.6 µM (≈ 7.98 µg/mL).

Question: What about the MIC [33] of the same compound?
Answer: Its MIC is 15.2 µM (≈ 16 µg/mL).

Question: And the MIC [34]?
Answer: The MIC was 30.5 µM (≈ 32 µg/mL).

Question: And the MIC [35]?
Answer: Its MIC is ≥ 122 µM.

Question: What about the MIC [10] of the same compound?
Answer: Its MIC is 7.6 µM (≈ 7.98 µg/mL).

Question: What about the MIC [17] of the same compound?
Answer: Its MIC is 60.9 µM (≈ 64 µg/mL).

Question: And the MIC [36]?
Answer: Its MIC is ≥ 122 µM.

Question: How did the MIC [37] turn out when `CC[C@H](C)[C@H](NC(=O)[C@H](CCCCN)NC(=O)[C@H](Cc1c[nH]c2ccccc12)NC(=O)[C@H](Cc1c[nH]c2ccccc12)NC(=O)[C@@H](NC(=O)[C@H](CCCCN)NC(=O)[C@H](Cc1c[nH]c2ccccc12)NC(=O)[C@@H](N)CC(C)C)[C@@H](C)CC)C(=O)N[C@@H](Cc1c[nH]c2ccccc12)C(=O)N[C@@H](CCCN=C(N)N)C(=O)N[C@H](C(=O)N[C@@H](Cc1c[nH]c2ccccc12)C(=O)N[C@@H](CCCCN)C(=O)N[C@@H](CC(N)=O)C(=O)N[C@@H](Cc1c[nH]c2ccccc12)C(=O)N[C@@H](CCCN=C(N)N)C(=O)O)C(C)C` [LWKIWWKIWRVWKNWR] was run?
Answer: The MIC was ≥ 53.7 µM.

Question: And the MIC [38]?
Answer: Its MIC is ≥ 53.7 µM.

Question: What about the MIC [39] of the same compound?
Answer: Its MIC is 3.35 µM (≈ 7.99 µg/mL).

Question: What about the MIC [40] of the same compound?
Answer: Its MIC is 26.8 µM (≈ 64 µg/mL).

Question: With `CC[C@H](C)[C@H](NC(=O)[C@H](CCC(N)=O)NC(=O)[C@@H](N)CCCN=C(N)N)C(=O)N[C@@H](CCCN=C(N)N)C(=O)N[C@@H](CCCN=C(N)N)C(=O)N[C@@H](Cc1c[nH]c2ccccc12)C(=O)N[C@@H](Cc1c[nH]c2ccccc12)C(=O)N[C@@H](CCC(N)=O)C(=O)N[C@@H](Cc1c[nH]c2ccccc12)C(=O)N[C@@H](CCCN=C(N)N)C(=O)N[C@@H](CCCN=C(N)N)C(N)=O` [RQIRRWWQWRR] as the compound, how does the MIC [41] read?
Answer: The MIC was 25 µM (≈ 43.2 µg/mL).

Question: And the MIC [40]?
Answer: The MIC was 50 µM (≈ 86.3 µg/mL).

Question: How did the MIC [42] turn out when `CC[C@H](C)[C@H](NC(=O)[C@H](CCC(N)=O)NC(=O)[C@@H](N)CCCN=C(N)N)C(=O)N[C@@H](Cc1c[nH]c2ccccc12)C(=O)N[C@@H](CCCN=C(N)N)C(=O)N[C@@H](Cc1c[nH]c2ccccc12)C(=O)N[C@@H](Cc1c[nH]c2ccccc12)C(=O)N[C@@H](CCC(N)=O)C(=O)N[C@@H](Cc1c[nH]c2ccccc12)C(N)=O` [RQIWRWWQW] was run?
Answer: Its MIC is > 50 µM.

Question: And the MIC [14]?
Answer: Its MIC is > 50 µM.

Question: What about the MIC [43] of the same compound?
Answer: Its MIC is > 50 µM.

Question: And the MIC [17]?
Answer: The MIC was > 50 µM.

Question: What about the MIC [44] of the same compound?
Answer: Its MIC is ≥ 50 µM.

Question: And the MIC [21]?
Answer: The MIC was > 50 µM.

Question: What about the MIC [45] of the same compound?
Answer: Its MIC is ≥ 50 µM.

Question: What about the MIC [46] of the same compound?
Answer: The MIC was ≥ 50 µM.

— DBAASP
